Data: US11873298B2, “Compounds and uses thereof” (JANSSEN PHARMACEUTICA NV, priority 2017, dated 2024)

Assays:
Assay type in all cases: cell-based
[1] = molecular target: T1, SCD1 (Homo sapiens, UniProt O00767); test: Growth inhibition of humanized yeast strain expressing SCD1 as sole desaturase; details: for IC50 / SCD1 % Max Inhibition: humanized yeast strain expressing SCD1
T1 construct: host or cells: S. cerevisiae ole1Δ strain (W303 pdr1Δ pdr3Δ background), plasmid pRS316 with TDH3 promoter and CYC1 terminator
T1 sequence (O00767 1-359): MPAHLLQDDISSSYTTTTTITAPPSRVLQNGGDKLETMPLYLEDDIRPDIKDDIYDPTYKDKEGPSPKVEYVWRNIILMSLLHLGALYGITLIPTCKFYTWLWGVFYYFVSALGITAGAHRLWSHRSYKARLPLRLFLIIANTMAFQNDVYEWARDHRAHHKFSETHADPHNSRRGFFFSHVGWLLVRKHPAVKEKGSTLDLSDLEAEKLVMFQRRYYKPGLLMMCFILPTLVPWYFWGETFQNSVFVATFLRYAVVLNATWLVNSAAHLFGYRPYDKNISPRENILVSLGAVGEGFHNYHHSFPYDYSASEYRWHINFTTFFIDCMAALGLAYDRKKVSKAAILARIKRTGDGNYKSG
How it was run: (§1)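 ole1Δ yeast (W303 pdr1Δ pdr3Δ background) carrying plasmid-borne Ole1, SCD1 or SCD5, grown in uracil-free media; cultures pre-grown in raffinose, seeded at 2× density 0.02 in galactose media with compound. Growth read as OD600 after 24 h at 30° C. for Ole1, 40 h for SCD1/SCD5.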

[2] = molecular target: T2, SCD5 (Homo sapiens, UniProt Q86SK9); test: Growth inhibition of humanized yeast strain expressing SCD5 as sole desaturase; details: for IC50 / SCD5 % Max Inhibition: humanized yeast strain expressing SCD5
T2 construct: host or cells: S. cerevisiae ole1Δ strain (W303 pdr1Δ pdr3Δ background), plasmid pRS316 with TDH3 promoter and CYC1 terminator
T2 sequence (Q86SK9 1-330): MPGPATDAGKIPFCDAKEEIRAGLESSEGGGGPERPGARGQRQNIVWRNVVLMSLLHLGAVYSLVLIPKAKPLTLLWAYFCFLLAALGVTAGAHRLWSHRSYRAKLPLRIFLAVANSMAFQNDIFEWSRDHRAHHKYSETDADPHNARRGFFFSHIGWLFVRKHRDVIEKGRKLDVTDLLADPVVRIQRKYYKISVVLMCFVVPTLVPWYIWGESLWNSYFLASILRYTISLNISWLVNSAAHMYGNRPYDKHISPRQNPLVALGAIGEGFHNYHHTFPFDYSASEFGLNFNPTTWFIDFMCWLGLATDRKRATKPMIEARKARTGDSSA
How it was run: as §1

[3] = molecular target: T3, Ole1 (Saccharomyces cerevisiae, UniProt P21147); test: Growth inhibition of yeast strain expressing Ole1 as sole desaturase; details: for IC50 / OLE1 % Max Inhibition: yeast strain expressing Ole1 as sole desaturase
T3 construct: expressed in transfected cells; host or cells: S. cerevisiae ole1Δ strain (W303 pdr1Δ pdr3Δ background), plasmid pRS316 with TDH3 promoter and CYC1 terminator
T3 sequence (P21147 1-510): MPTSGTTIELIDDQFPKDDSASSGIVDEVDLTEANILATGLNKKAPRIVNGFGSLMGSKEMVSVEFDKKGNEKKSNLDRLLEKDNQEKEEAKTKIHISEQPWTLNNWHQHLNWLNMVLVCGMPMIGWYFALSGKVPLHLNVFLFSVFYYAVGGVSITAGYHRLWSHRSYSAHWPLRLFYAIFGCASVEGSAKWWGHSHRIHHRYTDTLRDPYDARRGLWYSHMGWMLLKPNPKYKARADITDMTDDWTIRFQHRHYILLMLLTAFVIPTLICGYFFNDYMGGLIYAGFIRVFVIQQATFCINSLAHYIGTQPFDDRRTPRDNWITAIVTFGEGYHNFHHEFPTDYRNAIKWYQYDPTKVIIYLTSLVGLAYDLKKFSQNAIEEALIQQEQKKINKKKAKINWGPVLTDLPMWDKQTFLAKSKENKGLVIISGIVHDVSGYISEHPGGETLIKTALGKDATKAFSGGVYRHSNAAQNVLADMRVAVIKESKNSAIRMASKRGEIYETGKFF
How it was run: as §1

| SMILES | IC50 [1] | SCD1 % Max Inhibition [1] | IC50 [2] | SCD5 % Max Inhibition [2] | IC50 [3] | OLE1 % Max Inhibition [3] | half-maximal inhibitory concentration (IC50) ([1]; SCD1 humanized strain, FIG. 6) | half-maximal inhibitory concentration (IC50) ([2]; SCD5 humanized strain, FIG. 6) | growth of yeast expressing OLE1 in presence of inhibitor ([3]; FIG. 6) |
| --- | --- | --- | --- | --- | --- | --- | --- | --- | --- |
| CCOc1ccc(-c2noc(N3CCC(C(=O)N4CCO[C@@H](c5ccccc5)C4)CC3)n2)cc1OC [Compound 217] | 36.9 µM | 57.90% | > 45 µM | 12.62% | > 45 µM | 10.39% |  |  |  |
| Cc1nn(C)c2cc(-c3noc(C4CCN(C(=O)COc5ccccc5)CC4)n3)ccc12 [Compound 266] |  | 12.42% | > 45 µM | 9.90% | > 45 µM | 7.17% |  |  |  |
| Cc1nn(C)c2cc(-c3noc(C4CCN(C(=O)N5CCOCC5)CC4)n3)ccc12 [Compound 311] |  | 72.9% | > 45 µM | 60.5% | > 45 µM | 90.8% |  |  |  |
| Cc1nn(C)c2cc(-c3noc(C4CCN(C(=O)c5ccccc5Cl)CC4)n3)ccc12 [Compound 288] |  | 8.71% | > 45 µM | 7.52% | > 45 µM | 7.14% |  |  |  |
| CCN1C(=O)COc2ccc(-c3nc(C4(c5ccccc5)CC4)no3)cc21 [Compound 159] | 38.9 µM | 70.17% | 13.9 µM | 10.25% | > 45 µM | 46.92% |  |  |  |
| CNC(=O)c1cccc(NC(=O)N2CCC(Oc3ccccc3Cl)CC2)c1 [Compound A939572, reference compound] |  |  |  |  |  |  | low nanomolar | low nanomolar | resistant |
| Cc1nn(C(C)C)c2cc(-c3noc(C4CCN(C(=O)OC(C)(C)C)CC4)n3)ccc12 [Compound 343] |  | 59.1% | > 45 µM | 23.2% | > 45 µM | 84.7% |  |  |  |
| CCOc1cnc(-c2noc(C3CCN(C(=O)CNC(=O)c4ccccc4)CC3)n2)nc1OC [Compound 166] | > 45 µM | 90.07% | > 45 µM | 68.87% | > 45 µM | 105.73% |  |  |  |
| CCN1C(=O)CN(C)c2cc(-c3noc(C4CCN(C(=O)CNC(=O)c5ccccc5)CC4)n3)ccc21 [Compound 310] |  | 71.2% | > 45 µM | 66.6% | > 45 µM | 7.1% |  |  |  |
| COc1ccc(-c2noc(CCNC(=O)CNC(=O)c3ccccc3)n2)cc1OC [Compound 484] |  | 75.84% | > 45 µM | 81.46% | > 45 µM | 92.09% |  |  |  |
| O=C(CNC(=O)c1ccccc1)NCCc1nc(-c2ccccc2)no1 [Compound 485] |  | 62.60% | 30 µM | 65.42% | > 45 µM | 75.19% |  |  |  |
| COc1cc(-c2noc(C3CCN(C(=O)CNC(=O)c4ccccc4)CC3)n2)ccc1OC(F)(F)F [Compound 253] |  | 62.07% | > 45 µM | 63.11% | > 45 µM | 106.42% |  |  |  |
| CCOc1ccc(-c2noc(C3CCN(C(=O)[C@H]4CCN(C(=O)c5ccccc5)C4)CC3)n2)cc1OC [Compound 234] | > 45 µM | 68.91% | > 45 µM | 76.83% | > 45 µM | 84.80% |  |  |  |
| Cc1nn(C)c2cc(-c3noc(C4CCN(C(=O)C5CC(=O)N(CC6COC6)C5)CC4)n3)ccc12 (stereo not shown) [Compound 255] | > 45 µM | 72.70% | 30 µM | 64.50% | > 45 µM | 96.25% |  |  |  |
| CCn1nc(C)c2ccc(-c3noc(C4CCN(C(=O)OC(C)(C)C)CC4)n3)cc21 [Compound 301] |  | 96.2% | > 45 µM | 21.0% | > 45 µM | 99.4% |  |  |  |
| Cc1nn(C)c2cc(-c3noc(C4CCN(C(=O)C5CC(=O)N(c6ccccn6)C5)CC4)n3)ccc12 (stereo not shown) [Compound 195] | > 45 µM | 75.08% | > 45 µM | 9.78% | > 45 µM | 3.86% |  |  |  |
| CCN1C(=O)COc2ccc(-c3nc(C(C)c4ccccc4)no3)cc21 (stereo not shown) [Compound 160] | 40.7 µM | 63.44% | 24.3 µM | 28.51% | 36.2 µM | 71.55% |  |  |  |
| Cc1nn(C)c2cc(-c3nsc(C4CCN(C(=O)OC(C)(C)C)CC4)n3)ccc12 [Compound 300] |  | 78.1% | > 45 µM | 36.0% | > 45 µM | 79.7% |  |  |  |
| Cn1c(=O)n(C)c2cc(-c3noc(C4CCN(C(=O)CNC(=O)c5ccccn5)CC4)n3)ccc21 [Compound 230] | > 45 µM | 78.48% | > 45 µM | 44.00% | > 45 µM | 2.63% |  |  |  |
| CCOc1ccc(-c2noc(C3CCN(C(=O)[C@@H]4CN(c5ccccc5)C(=O)O4)CC3)n2)cc1OC [Compound 172] | > 45 µM | 89.39% | 41.1 µM | 68.80% | > 45 µM | 3.99% |  |  |  |
| Cc1nn(C)c2cc(-c3noc(N4CCN(C(=O)N5CCCCC5)CC4)n3)ccc12 [Compound 327] |  | 66.5% | > 45 µM | 68.0% | > 45 µM | 74.8% |  |  |  |
| Cn1ncc2ccc(NC(=O)C3CCN(C(=O)C4CC(=O)N(c5ccccc5)C4)CC3)cc21 (stereo not shown) [Compound 213] | > 45 µM | 86.35% | > 45 µM | 85.33% | > 45 µM | 94.72% |  |  |  |
